A short description of series [1]: Permeability of compound in human Caco-2 cells. Format: ADME, cell-based.
Series [2] relates to PC-3. Description: Antiproliferative activity against human PC-3 cells assessed as inhibition of cell proliferation incubated for 72 hrs by CCK-8 assay. It is filed as functional, cell-based. Conditions: PC-3, 72 h.
Series [3] deals with WEHI-3. In words: Induction of cell differentiation in mouse WEHI-3 cells assessed as lobulated nuclei at 1 uM incubated for 24 hrs by giemsa-Wrights staining based analysis. It is filed as functional.
Series [4] relates to Kasumi 1. In words: PANoptosis in human Kasumi 1 cells assessed as cell death at 0.6 uM incubated for 72 hrs by optical microscopic analysis. It is filed as functional, cell-based.
In series [5] the test system is Kasumi 1. Description: Induction of apoptosis in human Kasumi 1 cells assessed as increase in caspase-3 level incubated for 72 hrs by Western blotting analysis. It is filed as functional, cell-based. Conditions: dose 0.625-5 µM. Background: A western blot detects proteins with antibodies after separation by electrophoresis.
In series [6] the test system is WEHI-3. Description: Antitumor activity against mouse WEHI-3 cells implanted in Balb/c mouse assessed as reduction in liver metastasis at 1 mg/kg, po administered daily for 15 days by H and E staining based analysis. It is filed as functional, organism-based. To be noted: time 15.0 day.

Calls of active or inactive are those of the source. No cut-off for these calls is given here.

As usually defined, the IC50 is the concentration at which inhibition is half-maximal. Take `C=C1C[C@@H]2[C@@H](CC[C@]3(C)[C@@H](O[Si](C(C)C)(C(C)C)C(C)C)CC[C@@H]23)OC1=O`: the permeability result in series [1] was “Permeable”. Also, the IC50 in series [2] stood at 2090 nM. The outcome in series [3], in series [4] and in series [6] was Active. Moreover, in series [5], the Activity entry is “Dose-dependent-effect”.
